The values that follow are results of earlier work, collected in patent US12364698B2 (Janssen Pharmaceutica NV, priority 2015, dated 2025).

For the series the following is noted: at a pH of about 7.

`C=CC(=O)N1CCC[C@@H](n2nc(-c3ccc(Oc4ccccc4)cc3)c3c(N)ncnc32)C1` [Ibrutinib, 1-[(3R)-3-[4-amino-3-(4-phenoxyphenyl)-1H-pyrazolo[3,4 d]pyrimidin-1-yl]-1-piperidinyl]-2-propen-1-one]: the partition coefficient result is listed as “about 4”.
